Laboratory results: patent publication US20260069671A1, “MICELLE COMPRISING AMPHIPHILIC PEPTIDE, AND ANTIGEN CARRIER NANOPARTICLE USING SAME” (RTAB CO., LTD., priority 2022, published 2026)

Experiments:
[1] = Nanoparticle size measurement with Zetasizer Nano ZS; format: physicochemical; settings: diluted in ultrapure water, room temperature, triplicate mean +/- standard deviation
Procedure: Recombinant amphiphilic peptides and hapten peptides were produced and provided by Anygen in Gwangju, Korea. In order to prepare nanoparticles (particulate soluble hapten) using amphiphilic peptides, amphiphilic peptides (peptides of SEQ ID NOs: 1 to 4, respectively) were dissolved in distilled water at a concentration of 4 mg/mL. Then, hapten peptides (peptides of SEQ ID NOs: 5 to 11, respectively) were dissolved in distilled water at a concentration of 0.5 mg/mL. Afterwards, a fixed amount of hapten (50 μg) was mixed with two different amounts of amphiphilic peptide at a ratio of 3:1 and 1:3 (w/w) and incubated for 30 minutes at room temperature (25° C.).
In order to characterize the sizes of amphiphilic peptides and nanoparticles, the diameters of micelles and nanoparticles formed by amphiphilic peptides (carriers) were measured with a Zetasizer Nano ZS system (Malvern Instruments, Malvern, UK). After digestion, the micelle stock solution was added to the cuvette. After 30-minute incubation, nanoparticles were diluted to a final volume of 1 mL. The average size was then analyzed with Dispersion Technology software 4.3. Nanoparticles were diluted using ultrapure water (refractive index 1.33, viscosity 0.89) and used for analysis at room temperature. Observations were presented as triplicate means +/−standard deviation.

[2] = tested on: hapten and CD8 specific T cells; assay: Live cell flow cytometry of hapten-specific cytotoxic T cells in splenocytes of immunized mice; format: in vivo, mouse
Procedure: (§1) Female BALB/C mice were purchased from Nara Biotech, Seoul, Korea, were 6 weeks old, and were bred under pathogen-free conditions. This study was conducted in accordance with the strict guidelines for the care and use of laboratory animals of the National Institutes of Health. The protocol was approved by the Animal Care Committee of Hanyang University Animal Hospital. For immunization, nanoparticles were emulsified with aluminum hydroxide (20 mg/100 μL, Sigma-Aldrich, St Louis, MO, USA). The mice were injected with 150 μg carrier dissolved in 150 μL phosphate buffered saline (PBS). The mice were injected with 50 μg hapten dissolved in 150 μL PBS. The mice were injected with 3:1 (w/w) nanoparticles (150 μg carrier and 50 μg hapten) combined with 150 μL PBS and 40 mg aluminum hydroxide. The mice were injected with 1:3 (w/w) nanoparticles (16.67 μg carrier and 50 μg hapten) combined with 150 μL PBS and 40 mg aluminum hydroxide. […] Serum was collected from centrifuged blood and frozen at −20° C. until being analyzed by ELSIA. […] Serum was collected from centrifuged blood and frozen at −20° C. until being analyzed by dot blot. […]
(§2) In order to identify nanoparticle (or hapten peptide)-specific lymphocyte populations, live cell flow cytometry was performed. […] After rinsing, the cells were filtered through a 40 μm cell strainer and counted. […]

BALB/c mice [3] = assay: ELISA of hapten peptide-specific IgG/IgM in blood of immunized mice; format: in vivo, mouse; settings: FIG. 6
Procedure: Female BALB/C mice were purchased from Nara Biotech, Seoul, Korea, were 6 weeks old, and were bred under pathogen-free conditions. This study was conducted in accordance with the strict guidelines for the care and use of laboratory animals of the National Institutes of Health. The protocol was approved by the Animal Care Committee of Hanyang University Animal Hospital. For immunization, nanoparticles were emulsified with aluminum hydroxide (20 mg/100 μL, Sigma-Aldrich, St Louis, MO, USA). The mice were injected with 150 μg carrier dissolved in 150 μL phosphate buffered saline (PBS). The mice were injected with 50 μg hapten dissolved in 150 μL PBS. The mice were injected with 3:1 (w/w) nanoparticles (150 μg carrier and 50 μg hapten) combined with 150 μL PBS and 40 mg aluminum hydroxide. The mice were injected with 1:3 (w/w) nanoparticles (16.67 μg carrier and 50 μg hapten) combined with 150 μL PBS and 40 mg aluminum hydroxide. All groups were injected by intraperitoneal route and again on day 21. Blood was collected through the jugular vein twice a week and centrifuged at 2,000 g for 20 minutes. Serum was collected from centrifuged blood and frozen at −20° C. until being analyzed by ELSIA. The mice were sacrificed on day 35. Whole blood was collected and centrifuged at 2,000 g for 20 minutes. Serum was collected from centrifuged blood and frozen at −20° C. until being analyzed by dot blot. […]

BALB/c mice [4] = assay: Antibody detection by dot blot in serum of immunized mice; format: in vivo, mouse; settings: serum of day 35, serially diluted recombinant protein, FIG. 10
Procedure: as §1, with “hydroxide.” for “hydroxide. The mice were injected with 1:3 (w/w) nanoparticles (16.67 μg carrier and 50 μg hapten) combined with 150 μL PBS and 40 mg aluminum hydroxide.”
For determination of nanoparticle (or hapten peptide)-specific antibodies, serial dilutions of the recombinant protein were seeded on PVDF membranes at a concentration of 1.2 μg/μL to 12 ng/μL. […] Afterwards, the enhanced chemiluminescence solution (ECL) was treated with a membrane and directly analyzed with chemiscope 3400 (CLINX, China). […]

[5] = tested on: CD19 positive B cells reacting with DDOST protein labeled with Alexa 647; assay: Live cell flow cytometry of hapten-specific B cells in splenocytes of immunized mice; format: in vivo, mouse; settings: FIG. 11
Procedure: as §1, §2

mice = assay: Comparison of antibodies induced by nanoparticles and by the KLH conjugate method (FIG. 7); format: in vivo, mouse; settings: compared with keyhole limpet hemocyanin method
Procedure: In addition, when the antibodies identified by Western blot were pre-reacted with the incomplete water-soluble antigen (lower panel of FIG. 7), all bands disappeared, confirming that all antibodies that were produced were specifically generated against the incomplete water-soluble antigen. After completion of the experiment, the spleens of the used animals were removed, splenocytes were isolated, and the analysis of B cells and T cells was performed through flow cytometry.

Row | Substance | Z-ave [1] [nm·days] | change in proportion of CD8 T cells reacting to the target protein ([2]; FIG. 12) | hapten and CD8 specific T cells, lower gating group ([2]; splenocytes day 35, FIG. 12) [%] | expression of hapten peptide-specific IgG and IgM antibodies in mouse blood (BALB/c mice [3]) | hapten peptide-specific IgG dots (dot blot) (BALB/c mice [4]) | change in ratio of B cells responding to the target protein [5] | hapten-specific B cells, lower gating group ([5]; splenocytes day 35, Alexa 647 positive channel) [%] | antibody production (FIG. 7, top panel) (mice)
1 | RRRVVVVVV (micelle self-assembly) [Carrier, amphiphilic peptide of three arginines and six valines forming micelles by self-assembly] | 193.8 ± 97.3 | did not show significant changes | 0.78 | no significant increase | no concentrated dots | no significant change | 15.1 | –
2 | keyhole limpet hemocyanin | – | – | – | – | – | – | – | antibodies were produced
